Target: T1, IRP1 (Mus musculus, UniProt P28271)
T1 sequence (P28271 1-889): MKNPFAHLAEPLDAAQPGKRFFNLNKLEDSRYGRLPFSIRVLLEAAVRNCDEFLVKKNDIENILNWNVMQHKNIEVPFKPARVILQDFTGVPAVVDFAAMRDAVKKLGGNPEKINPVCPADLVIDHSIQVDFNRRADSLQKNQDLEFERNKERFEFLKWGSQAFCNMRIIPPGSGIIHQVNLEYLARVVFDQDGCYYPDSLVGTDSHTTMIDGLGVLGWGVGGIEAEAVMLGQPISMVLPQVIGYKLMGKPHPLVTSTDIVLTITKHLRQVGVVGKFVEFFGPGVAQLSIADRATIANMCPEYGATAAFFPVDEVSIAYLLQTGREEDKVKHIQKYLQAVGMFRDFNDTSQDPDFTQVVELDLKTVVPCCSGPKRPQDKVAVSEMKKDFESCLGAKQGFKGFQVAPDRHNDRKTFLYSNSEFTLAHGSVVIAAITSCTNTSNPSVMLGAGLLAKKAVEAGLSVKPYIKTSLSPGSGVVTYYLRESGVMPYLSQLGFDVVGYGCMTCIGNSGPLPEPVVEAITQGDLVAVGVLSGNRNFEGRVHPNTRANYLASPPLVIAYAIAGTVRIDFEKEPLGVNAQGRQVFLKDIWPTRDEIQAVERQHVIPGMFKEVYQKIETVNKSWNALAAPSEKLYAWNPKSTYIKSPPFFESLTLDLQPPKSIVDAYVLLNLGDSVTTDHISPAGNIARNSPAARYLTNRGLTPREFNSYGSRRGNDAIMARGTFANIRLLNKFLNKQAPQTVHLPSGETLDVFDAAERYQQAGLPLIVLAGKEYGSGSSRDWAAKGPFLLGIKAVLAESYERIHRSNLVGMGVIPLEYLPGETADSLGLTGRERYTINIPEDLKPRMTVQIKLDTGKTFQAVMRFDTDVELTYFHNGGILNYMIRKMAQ
Assay: Gel-shift of IRP1 in wild type and IRP2−/− mouse embryonic fibroblasts after Tempo1 or DFO and washout
Assay type: cell-based
Design: Embryonic fibroblasts of 13-day old embryos were isolated from wild type, IRP1−/− mice and IRP2−/− mice; endogenous in cells; host or cells: mouse embryonic fibroblasts (wild type and IRP2−/−)
Protocol: Cells: Embryonic fibroblasts of 13-day old embryos were isolated from wild type, IRP1−/− mice and IRP2−/− mice as described in LaVaute et al. supra. Myc-tagged HEK 293 Tet-on cell line, in which IRP2 expression was inducible, was prepared and cultured as described Bourdon et al., Blood Cells Mol Dis, 31, 247-255 (2003). Erythroblasts were harvested from bone marrow and purified as described in Cooperman et al., Blood, 106, 1084-1091 (2005).
RNA mobility shift assays: Gel retardation assays were performed as described in Meyron-Holtz et al., EMBO J, 23, 386-395 (2004). Tissue lysates were prepared in an anaerobic chamber as described above in oxygen-depleted lysis buffer containing 10 mM HEPES (pH 7.2), 3 mM MgC12, 40 mM KCl, 5% glycerol, 0.2% Nonidet P-40, 5 mM DTT, 1 mM AEBSF, 10 μg/ml. Leupeptin and complete TM EDTA free protease inhibitor cocktail (Roche Applied Science, Indiana). Lysate (x μl) containing 10 μg of total protein was added to (12.5−x) μl of bandshift buffer containing 25 mM Tris-HCl (pH 7.5) and 40 mM KCl. The samples were incubated for 5 min at room temperature (RT) with 12.5 μl of a reaction cocktail containing 20% glycerol, 0.2 U/μl Super RNAsine (Ambion, Tex.), 0.6 μg/μl yeast t-RNA, 5 mM DTT and 20 nM 32P-labelled IRE from human ferritin H-chain gene in 25 mM Tris-HCl (pH 7.5) and 40 mM KCl. A measure of 20 μl of this reaction mixture was loaded into a 10% acrylamide/TBE gel, which was run at 200 V for 2.15 h, and then the gel was fixed, dried and exposed for autoradiography.
To determine whether the effect of Tempo1 on IRP1 activity was kinetically consistent with oxidative disassembly of the iron sulfur cluster, the effect of Tempo1 on aconitase activity was compared to that of the iron chelator, deferiprone (DFO), which activates IRE-binding activity of IRP1 by limiting de novo synthesis and repair of the iron sulfur cluster in IRP1. […] Recovery of aconitase activity was assessed in wild type and IRP2−/− cells.

For `CC1(C)CC(O)CC(C)(C)N1[O]` [Tempo1], the “time to reversal of the activation of IRE-binding activity after removal” value (mouse embryonic fibroblasts, 16 hours treatment, then fresh unsupplemented media) was at most 2 h and the “IRE-binding activity of IRP1” value (wild type and IRP2−/− mouse embryonic fibroblasts treated 16 hours) was “activated”.
